The values below come from patent publication US12458637B2, “Targeting WNK1 in blood cancers” (Københavns Universitet, priority 2019, dated 2025).

The structures appear in SMILES notation. Entries after “also recorded” stand apart in the source; their conditions may differ. Where only a bound is given, the exact number is not on record here.

The test system of one series is blood cancer cell lines. Kind of series: CellTiter-Glo viability assay, human cell lines. The settings on record: FIG. 5. The class given is cell-based. As for the experimental part: Dose-response curves were generated using the CellTiter-Glo® assay (Promega: G7570). BJ-tert, U2OS, MOLM13, THP1, Monomac, MMS1, KMS18, KMS11, MSTo, and H226, cells were seeded in triplicate in round bottom 96 well plates in the presence of varying concentrations of “Compound 12”. After 72 hours the number of viable cells in the cultures were measured using the CellTiter-Glo®. IC50 values were calculated using the Prism software (GraphPad: Prism 7 for Mac OS X). The experiment show the IC50 values for the different human cell lines (FIG. 5).

Series [1] deals with MA9 cells. Kind of series: Growth curves of MA9 cells. The class given is cell-based, mouse. The settings on record: varying concentrations, growth curve, FIG. 4C. As for the experimental part: MA9 cell cultures were grown in triplicate in 24 well plates in the presence of varying concentrations of “Compound 12”. Cells were plated with a density of 50.000 cells per well after which they were counted and replated every 3 days.

A further series relates to phosphorylated OXSR1. The settings on record: in cells, Yamada et al., 2017; cited from earlier work.
For a further series, the system named is WNK1 (P-OXSR1). Kind of series: Western blot of Oxsr1 and P-Oxsr1 in MA9 cells. The class given is cell-based, mouse. To be noted: MA9 cells treated for 3 hours. As for the experimental part: Murine MLL-AF9 transformed leukemic cells (MA9) were treated for 3 hours with different concentrations of “Compound 12”. Treated cells were counted and lysed in 1×LSB buffer and an equal to 100.000 cells were loaded on each lane of a 10% SDS-Page gel.
Gels were transferred to nitrocellulose membranes probed with sheep-anti-OXSR1 [S336B] or sheep-anti-P-OXSR1 [S688B] (both from University of Dundee). Binding of the primary antibody was on detected light sensitive films, using rabbit peroxidase conjugated anti-sheep IgG antibody (1 in 30.000 dilution, Abcam: ab6900) followed by enhanced chemiluminescence (Pierce ECL Plus, ThermoFisher: 34577) (FIG. 4B).

The subject of series [2] is MLL-AF9 translocated leukemia. Kind of series: In vivo treatment of leukemic mice (MA9 transplanted). Set-up: species or system mouse. The settings on record: daily injection of 1.8 mg in sun flower oil, mice transplanted with MA9 cells. As for the experimental part:
1×10^4 leukemic cells were injected into the tail vein of sub-lethally irradiated (450 rad) BL6.SJL mice. Two days after transplantation the mice were injected with 1.8 mg “Compound 12” dissolved into 200 μL sun flower oil or sun flower oil alone (control). A total of 26 mice were used in the experiment, where 14 received oil alone and 12 received “Compound 12”.
The injections were continued daily for a period of 20 days.

In another series the test system is MEFs. Kind of series: CellTiter-Glo viability assay, mouse embryonic fibroblasts. The class given is cell-based. As for the experimental part: (§1) Dose-response curves were generated using the CellTiter-Glo® assay (Promega: G7570). Cells were seeded in triplicate in round bottom 96 well plates in the presence of varying concentrations of “Compound 12”. After 72 hours the number of viable cells in the cultures were measured using the CellTiter-Glo®. IC50 values were calculated using the Prism software (GraphPad: Prism 7 for Mac OS X).

The conditions of series [3]: 30 mg/kg single oral dose; cited from earlier work.
Series [4] deals with MA9 cells. Kind of series: CellTiter-Glo viability assay, MA9 cells. To be noted: Mus musculus, 72 hours. The class given is cell-based. As for the experimental part:
as §1

The subject of the next series is blood pressure. The settings on record: 30 mg/kg single oral dose, rodent hypertension models; cited from earlier work.
For series [5] the following is noted: Yamada et al., 2017; cited from earlier work.

As to `[2H]C([2H])([2H])Nc1nc(-c2cc(C(=O)N3CCN(Cc4ccc(Cl)cc4)CC3)c(Cl)cn2)cs1` [Compound 12, (5-Chloro-2-(2-((methyl-d3)amino)thiazol-4-yl)-pyridin-4-yl)(4-(4-chlorobenzyl)piperazin-1-yl)methanone], in the series on blood cancer cell lines (human cell lines vs BJ tert), the “Sensitivity of blood cancer cell lines compared with diploid fibroblasts” value was “significantly more sensitive”. Also, the IC50 in the series with blood cancer cell lines (viability, 72 hours, human cell lines, read-out: IC50 of most of the blood cancer cell lines) was around 1000 nM; in the series with MEFs (Mus musculus, Fibroblast, viability, 72 hours, CellTiter-Glo), above 20000 nM; with MA9 cells [4] it was around 1000 nM. In addition, in the series with MA9 cells [1], the “Growth / proliferation of MA9 cells” value was “dose-dependent inhibition; also recorded: inhibits growth; also recorded: attenuated growth”. Moreover, in the series on phosphorylated OXSR1, the EC50 was 590 nM. In addition, the “Inhibition of WNK1 (phosphorylated OXSR1, Western blot)” value with WNK1 (P-OXSR1) is “inhibits WNK1 in leukemic cells”. For the same molecule, in series [2], the “Lifespan of leukemic mice” value is recorded as “significantly extend the life-time; also recorded: increases their lifespan; also recorded: increased lifespan”. The “IC50 in MEFs compared with MA9 cells” value in the series on MEFs (viability assay, FIG. 4A) is given as “significantly higher”. Also, the Concentration in series [3] is 2000 nM. Besides, the Blood pressure result with blood pressure is listed as “some reduction in blood pressure”. Further, in series [5], the Toxicity in mice result is “low toxicity”.
